How the values were obtained:
Format in all cases: in vivo
[1] = system: upland rice (Oryza sp., var. Tebonnet, RICE); assay: Post-emerge test, crop safety; details: post-emerge, 14 days after application, rating scale 0-100
Procedure, shortened: (§1)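 Rating: 0–100 visual injury, 14 DAA. Application: acetone, 187 l/ha, 15–1000 g ai/ha, flat-fan track sprayer with nozzle 40–45 cm above soil or canopy. Post-emerge runs used 0.25% v/v surfactant on 2–3 leaf plants.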

[2] = system: field corn (Zea mays L., var. Dekalb 535, CORN); assay: Post-emerge test, crop safety; details: post-emerge, 14 days after application, rating scale 0-100
Procedure, shortened: as §1

[3] = system: upland rice (Oryza sp., var. Tebonnet, RICE); assay: Pre-emerge test, crop safety; details: pre-emerge, 14 days after application, scale 0-100
Procedure, shortened: (§2)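 Compounds in acetone were track-sprayed at 187 l/ha, 15–1000 g ai/ha, onto sandy loam pots. Pre-emerge seeds were sown one day before spraying, with surface watering afterwards. Post-emerge plants were at the 2–3 leaf stage and sprayed with 0.25% v/v non-ionic surfactant. Injury was rated 0–100 at 14 days.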

[4] = system: field corn (Zea mays L., var. Dekalb 535, CORN); assay: Pre-emerge test, crop safety; details: pre-emerge, 14 days after application, scale 0-100
Procedure, shortened: as §2

[5] = system: green foxtail (Setaria viridis, SETVI); assay: Post-emerge test, greenhouse herbicide activity screening; details: post-emerge, 14 days after application, rating scale 0-100
Procedure, shortened: (§3)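 Sandy loam pots; pre-emerge: sown 1 d pre-spray, surface-watered after, then bottom-watered. Post-emerge: sown 8–21 d before, 2–3 leaf stage, + 0.25% v/v NIS, bottom-watered. Acetone, 187 l/ha track spray, 15–1000 g ai/ha. 0–100 injury score, day 14.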

[6] = system: sicklepod (Cassia obtusifolia, CASOB); assay: as above; details: post-emerge, 14 days after application, rating scale 0-100
Procedure, shortened: as §3

[7] = system: barnyardgrass (Echinochloa crus-galli, ECHCG); assay: as above; details: post-emerge, 14 days after application, rating scale 0-100
Procedure, shortened: as §3

[8] = system: redroot pigweed (Amaranthus retroflexus, AMARE); assay: as above; details: post-emerge, 14 days after application, rating scale 0-100
Procedure, shortened: as §3

[9] = system: johnsongrass (Sorghum halepense, SORHA); assay: as above; details: post-emerge, 14 days after application, rating scale 0-100
Procedure, shortened: as §3

[10] = system: lambsquarters (Chenopodium album, CHEAL); assay: as above; details: post-emerge, 14 days after application, rating scale 0-100
Procedure, shortened: as §3

[11] = system: velvetleaf (Abutilon theophrasti, ABUTH); assay: as above; details: post-emerge, 14 days after application, rating scale 0-100
Procedure, shortened: as §3

[12] = system: large crabgrass (Digitaria sanguinalis, DIGSA); assay: as above; details: post-emerge, 14 days after application, rating scale 0-100
Procedure, shortened: as §3

[13] = system: ivyleaf morningglory (Ipomoea hederacea, IPOHE); assay: as above; details: post-emerge, 14 days after application, rating scale 0-100
Procedure, shortened: as §3

[14] = system: green foxtail (Setaria viridis, SETVI); assay: Pre-emerge test, greenhouse herbicide activity screening; details: pre-emerge, 14 days after application, scale 0-100
Procedure, shortened: (§4)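 Compounds in acetone were track-sprayed at 15–1000 g ai/ha: pre-emergence onto soil sown the previous day, then top-watered to incorporate and later bottom-watered; post-emergence onto 2–3 leaf plants with 0.25% v/v surfactant, bottom-watered only. Ratings on a 0–100 phytotoxicity scale were taken at day 14.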

[15] = system: sicklepod (Cassia obtusifolia, CASOB); assay: as above; details: pre-emerge, 14 days after application, scale 0-100
Procedure, shortened: as §4

[16] = system: barnyardgrass (Echinochloa crus-galli, ECHCG); assay: as above; details: pre-emerge, 14 days after application, scale 0-100
Procedure, shortened: as §4

[17] = system: johnsongrass (Sorghum halepense, SORHA); assay: as above; details: pre-emerge, 14 days after application, scale 0-100
Procedure, shortened: as §4

[18] = system: lambsquarters (Chenopodium album, CHEAL); assay: as above; details: pre-emerge, 14 days after application, scale 0-100
Procedure, shortened: as §4

[19] = system: velvetleaf (Abutilon theophrasti, ABUTH); assay: as above; details: pre-emerge, 14 days after application, scale 0-100
Procedure, shortened: as §4

[20] = system: large crabgrass (Digitaria sanguinalis, DIGSA); assay: as above; details: pre-emerge, 14 days after application, scale 0-100
Procedure, shortened: as §4

[21] = system: ivyleaf morningglory (Ipomoea hederacea, IPOHE); assay: as above; details: pre-emerge, 14 days after application, scale 0-100
Procedure, shortened: as §4

[22] = system: redroot pigweed (Amaranthus retroflexus, AMARE); assay: as above; details: pre-emerge, 14 days after application, scale 0-100
Procedure, shortened: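 Compounds in acetone were track-sprayed at 15-1000 g ai/ha (187 l/ha) on sandy loam pots: pre-emerge one day after seeding, post-emerge at 2-3 leaf stage with 0.25% v/v non-ionic surfactant. Phytotoxicity was rated 14 days later on a 0 (no damage) to 100 (complete death) scale.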

Structure (SMILES): CCOC(=O)CSCC(=O)Nc1c(OC)c(Cl)cc(F)c1-n1c(=O)cc(C(F)(F)F)n(C)c1=O [2-170]
- RICE phytotoxicity rating (crop damage) ([1]; 63 g ai/ha): 5
- RICE phytotoxicity rating (crop damage) ([1]; 250 g ai/ha): 10
- CORN phytotoxicity rating (crop damage) ([2]; 63 g ai/ha): 5
- CORN phytotoxicity rating (crop damage) ([2]; 250 g ai/ha): 15
- phytotoxicity rating RICE (crop damage) ([3]; 63 g ai/ha): 10
- phytotoxicity rating RICE (crop damage) ([3]; 250 g ai/ha): 0
- phytotoxicity rating CORN (crop damage) ([4]; 63 g ai/ha): 10
- phytotoxicity rating CORN (crop damage) ([4]; 250 g ai/ha): 15
- SETVI phytotoxicity rating ([5]; 63 g ai/ha): 10
- SETVI phytotoxicity rating ([5]; 250 g ai/ha): 20
- CASOB phytotoxicity rating ([6]; 63 g ai/ha): 10
- CASOB phytotoxicity rating ([6]; 250 g ai/ha): 60
- ECHCG phytotoxicity rating ([7]; 63 g ai/ha): 0
- ECHCG phytotoxicity rating ([7]; 250 g ai/ha): 20
- AMARE phytotoxicity rating ([8]; 63 g ai/ha): 20
- AMARE phytotoxicity rating ([8]; 250 g ai/ha): 30
- SORHA phytotoxicity rating ([9]; 63 g ai/ha): 0
- SORHA phytotoxicity rating ([9]; 250 g ai/ha): 10
- CHEAL phytotoxicity rating ([10]; 63 g ai/ha): 60
- CHEAL phytotoxicity rating ([10]; 250 g ai/ha): 50
- ABUTH phytotoxicity rating ([11]; 63 g ai/ha): 35
- ABUTH phytotoxicity rating ([11]; 250 g ai/ha): 90
- DIGSA phytotoxicity rating ([12]; 63 g ai/ha): 0
- DIGSA phytotoxicity rating ([12]; 250 g ai/ha): 30
- IPOHE phytotoxicity rating ([13]; 63 g ai/ha): 50
- IPOHE phytotoxicity rating ([13]; 250 g ai/ha): 95
- phytotoxicity rating SETVI ([14]; 63 g ai/ha): 60
- phytotoxicity rating SETVI ([14]; 250 g ai/ha): 90
- phytotoxicity rating CASOB ([15]; 63 g ai/ha): 30
- phytotoxicity rating CASOB ([15]; 250 g ai/ha): 60
- phytotoxicity rating ECHCG ([16]; 63 g ai/ha): 0
- phytotoxicity rating ECHCG ([16]; 250 g ai/ha): 50
- phytotoxicity rating SORHA ([17]; 63 g ai/ha): 20
- phytotoxicity rating SORHA ([17]; 250 g ai/ha): 80
- phytotoxicity rating CHEAL ([18]; 63 g ai/ha): 100
- phytotoxicity rating CHEAL ([18]; 250 g ai/ha): 100
- phytotoxicity rating ABUTH ([19]; 63 g ai/ha): 90
- phytotoxicity rating ABUTH ([19]; 250 g ai/ha): 100
- phytotoxicity rating DIGSA ([20]; 63 g ai/ha): 30
- phytotoxicity rating DIGSA ([20]; 250 g ai/ha): 90
- phytotoxicity rating IPOHE ([21]; 63 g ai/ha): 40
- phytotoxicity rating IPOHE ([21]; 250 g ai/ha): 70
- phytotoxicity rating AMARE ([22]; 63 g ai/ha): 70
- phytotoxicity rating AMARE ([22]; 250 g ai/ha): 100
